Results as given in patent EP1759703A1, “IMMUNISTIMULATIVE AND INTERFERONOGENOUS AGENT” (Akciju Sabiedriba "Olainfarm", priority 2004, dated 2006).
Structures can show the parent of a compound that is named as a salt. Where two headings read alike, the source gives them in different places.

Tests used:
Solubility (qualitative) = type: physicochemical
[1] = system: natural killers (NK-cells); test: NK-cell functional activity test (lysis of K-562 target cells, fluorescent tag); type: cell-based; conditions: Homo sapiens, ratio of treated to untreated NK-cells activity, read-out: Relative value of change of NK-activity over DMAAM compounds
From the text: Immunostimulating activity. Determination of the effect of claimed compounds on functional activity of immunocomptent human cells.
Immunocompetent cells - natural killers (NK-cells) - relate to the system of natural human body resistance. Identification of the status of this immune system link gives important information about the state of the body immune status. To assess the state of this immune system link depending on the presence of studied compounds a functional test was used to determine the NK-cells capacity to expose to lysis the target cells of tumor myeloblast culture K-562, the identification of which was implemented using a fluorescent tag. NK-cells activity was identified in accordance with the number of the target cells K-562 "killed" by them which were evaluated based on the intensity of fluorescent glowing in the area characteristic for killed cells and against control results (i.e. when NK-cells are absent).
The influence level of the studied drugs on NK-cells activity was assessed based on the value of the NK-cells activity ratio when treated with these medications to the activity of untreated NK-cells in the lysis process of target cells of the test culture, line K-562.
To select medication doses and concentrations while studying their activity, their minimal toxic dose against target cells and mononuclear cells of peripheral blood was preliminarily measured.
This defines a considerable immunostimulating effect of offered substances.
In addition immunostimulating effect mainly occurs in polymeric compounds (PVASA - DMAAM, VA - VASA - DMAAM, VP - VASA - DMAAM), and with an increase of drug concentration their stimulating impact on NK-cells activity enhances. Table 1. Change of NK-cells activity over 3.5-dimethyl-1-adamantylamine.

[2] = system: mononuclear cells of peripheral blood (NK-cells); type: cell-based, human; conditions: IU of interferon antiviral activity as regards the virus of vesicular stomatitis
[3] = system: white mice of both sexes, line "Balb"; test: Acute toxicity, single oral administration, mice; type: in vivo
Experimental: The toxicity level of claimed compounds was assessed according to a general index of acute toxicity - average fatal dose of LD50. The study was held with a single oral administration of the medication to white mice of both sexes, line "Balb", weight 18 - 20 g, and to white rats, line "Vistar", weight 130 - 250 g (female) and 225 - 370 g (male). The medications were administered to mice in the dose ranging from 25 to 1100 mg/kg, and to rats in the range of 480 - 2315 mg/kg.

SMILES	solubility in water (Solubility (qualitative))	fold induction at 2 µg/mL ([1]; K562, concentration 2 mcg/ml (as calculated per DMAAM))	fold induction at 10 µg/mL ([1]; K562, concentration 10 mcg/ml (as calculated per DMAAM))	fold induction at 50 µg/mL ([1]; K562, concentration 50 mcg/ml (as calculated per DMAAM))	Interferon induction activity of NK-cells ([2]; concentration 2 mcg/ml (as calculated per DMAAM))	Interferon induction activity of NK-cells ([2]; concentration 10 mcg/ml (as calculated per DMAAM))	Interferon induction activity of NK-cells ([2]; concentration 50 mcg/ml (as calculated per DMAAM))	LD50 [3]
CC12CC3CC(C)(C1)CC(N)(C3)C2 [3.5-dimethyl-1-adamantylamine]	insoluble in water	–	–	–	–	–	–	–
CC12CC3CC(C)(C1)CC(N)(C3)C2 [HC - DMAAM, hydrochloride 3.5-dimethyl-1-adamantylamine]	–	1	1.2	1.6	5.77 IU/ml	13.00 IU/ml	14.46 IU/ml	363 mg/kg
